Test results reported in US20170307610A1, “COMPOUNDS THAT BIND DYSTROGLYCAN AND USES THEREOF” (OREGON HEALTH & SCIENCE UNIVERSITY, priority 2014, published 2017).

Key:
LN18 human glioma cells = assay: Laminin internalization in vector or LARGE expressing cells, flow cytometry; type: cell-based
Text: (§1) Loss of DG's laminin binding function is a cause of some congenital muscular dystrophies (CMDs) and is a frequent defect in cancers including those of the breast, prostate, colon, and brain (Akhavan A et al, 2012 supra; Beltran-Valero de Bernabe et al, 2009 infra). This loss of function arises from altered glycosylation of DG and can be restored in many carcinoma and glioblastoma cells by expression of the enzyme LARGE, a glycosyltransferase that confers laminin-binding properties to DG (Akhavan et al., 2012; Beltran-Valero de Bernabe D et al, J Biol Chem 284, 11279-11284 (2009); incorporated by reference herein. Based on these facts in light of the disclosure herein, it was hypothesized that laminin internalization would be severely disrupted in cancer cells lacking DG activity and enhanced by the restoration of such activity. This hypothesis was tested in MDA-MB-231 human breast cancer cells and LN18 human glioma cells, both of which lack DG glycosylation and function. […] Expression of LARGE restored normal glycosylation of DG as determined by western blot analysis with IIH6 antibody (FIG. 10A, LARGE) and functional interaction of DG in the laminin assembly assay (FIG. 10B, LARGE). These cells were subsequently assayed for laminin internalization by flow cytometry.
(§2) Flow Cytometry—Cells were plated in 12 well plates at 200,000 cells/well. The following day, media was changed to serum-free media with or without 10 μg/ml rhodamine laminin or 40 μg/ml FITC-dextran (500S-Sigma-Aldrich Corp., St. Louis, Mo., USA). Unless otherwise indicated, cells were incubated 18-24 hrs, washed once with PBS, and cells trypsinized. Cells were washed in 5 ml cold PBS/1 mM EDTA, pelleted, and resuspended in 1 ml PBS/1 mM EDTA. Using a BD FACScan flow cytometer (BD Biosciences, San Jose, Calif., USA), 10,000 cells/well were counted, background fluorescence from the cell counts with no added laminin subtracted and the mean fluorescence intensity values reported. Graphed data are compiled from duplicate wells from each experiment with a minimum of three separate experiments, unless indicated otherwise.

[1] = test system: MDA-MB-231 human breast cancer cells; assay: as above; type: cell-based
Text: as §1, §2

Substance: Rhod-Ln: laminin-111 labeled with NHS-rhodamine; dystroglycan binding reagent
- increase in MFI of internalized laminin, LARGE vs vector (LN18 human glioma cells; LN18): 10 fold
- MFI of internalized laminin, LARGE expressing cells (LN18 human glioma cells; LN18 LARGE, n=3): 1.49±0.049
- MFI of internalized laminin, vector cells (LN18 human glioma cells; LN18 empty vector, n=3): 0.145±0.155
- increase in MFI of internalized laminin, LARGE vs vector ([1]; MDA-MB-231): 68 fold
- MFI of internalized laminin, LARGE expressing cells ([1]; MDA-MB-231 LARGE, Rhod-Ln 18 hours, n=3): 6.82 +/−0.241
- MFI of internalized laminin, vector cells ([1]; MDA-MB-231 empty vector, Rhod-Ln 18 hours, n=3): 0.1+/−0.014
